Measured values as given in article PMC11556054, “Development and Synthesis of Bombesin-Based Radiopharmaceutical Precursors Modified with Knottin” (Modern Technologies in Medicine, 2024).

Key:
[1] = Radiochemical stability of 177Lu-labeled structures in 0.9% sodium chloride (radio-HPLC); type: physicochemical; conditions: for radiochemical purity after 168 h: 168 h in 0.9% sodium chloride at 37°C
Protocol: Lutetium (^177Lu) chloride was used as a radioligand. […] The radioactivity of samples was measured with a gamma counter ISOMED 2010 (PTW, Germany). Labeling of the peptides was conducted on a Gaia/Luna complex (Elysia-Raytest, Germany). […] The system was controlled by the Clarity programs (Clarity Software, Great Britain). The labeled peptides were purified from free lutetium with the help of single-use cartridges C18 (ABX, Germany), the GAIA complex was used according to the gel-filtration principle.

[2] = Chemical stability in 0.9% sodium chloride (HPLC chromatographic purity); type: physicochemical; conditions: target peak area as % of total peak area, M±SD
Protocol: The analysis of the synthesis and purity control of the commercial PSMA-617 (Huayi Isotopes, China) was performed using chromatographic system Shimadzu LC-20AD XR (Shimadzu, Japan), equipped with spectrophotometric detector SPD-20A, according to the principle of the reverse-phase chromatography with the help of Luna C18 column (Dr. Maisch, Germany) and gradient elution of acetonitrile (Criochrome, Russia) from 95 to 0% and deionized water from 0 to 100% for 40 min. Mass-spectrometric analysis was conducted on the basis of MALDI-TOF mass-spectrometry using MALDI-TOF MS system, series FLEX (Bruker Daltonics, Germany). The peptide was purified by means of a high-performance liquid chromatography system NGC Quest 10 (Bio-Rad, USA) using Bio-Gel P-4 sorbent on the Econo-Column 1×30 cm (Bio-Rad, USA).
Lutetium (^177Lu) chloride was used as a radioligand. […] The radioactivity of samples was measured with a gamma counter ISOMED 2010 (PTW, Germany). Labeling of the peptides was conducted on a Gaia/Luna complex (Elysia-Raytest, Germany). […] The system was controlled by the Clarity programs (Clarity Software, Great Britain). The labeled peptides were purified from free lutetium with the help of single-use cartridges C18 (ABX, Germany), the GAIA complex was used according to the gel-filtration principle. Radiochemical stability was evaluated using the same parameters after 24, 48, 96 and 168 h in 0.9% sodium chloride at 37°C. Chemical stability was similarly fixed in 0.9% sodium chloride as described above. Chromatographic purity was calculated as a percentage of the target substance peak area in relation to the total area of the peaks on the chromatogram taken as 100%.

[3] = test system: CHO-K1 culture; experiment: Binding of 6-FAM-labeled peptides to cell culture, fluorescence microscopy; type: cell-based, Chinese hamster; conditions: 1 μmol/L, 3 h incubation, washed with cooled phosphate buffer, ImageJ, >300 cells, negative control culture
Protocol: A fluorescent dye 6-FAM in the form of amine (Lumiprob, Russia) was used for bonding analysis. The peptides were labeled according a standard manufacturer protocol: they were dissolved in 0.1 mol/L solution of NaHCO3, 6-FAM dye was then added to the solution and incubated for 30 min at room temperature in the dark. The peptides were purified from the dye excess using alcohol precipitation method. For purification, one part of the labeled peptide solution was mixed with nine parts of the 95% ethanol cooled at –20°C. Further, the peptides were incubated for 90 min at the same temperature (–20°C). […]
(§1) 24 h before the experiment, the cultures were seeded in 24-well plates at the concentration of 100,000/well (LnCap — 150,000/well) to achieve the exponential stage. […] After the incubation, the medium with unbonded peptides was removed, the plate wells were washed with a cooled phosphate buffer and the fluorescence signal was recorded using an optical system equipped with a Nikon Ti-S microscope, DS-Qi1MC camera, S Plan Fluor ELWD 20×0.45 objective lenses, 465-495/515-555 nm filter (Nikon, Japan), and a computer with NIS-elements 4.0 software package.
The quantitative analysis of images was performed with an ImageJ program. The fluorescence signal from more than 300 cells was analyzed for each peptide. […] The fluorescence signal without peptides was registered as a control. […]

[4] = test system: HCT-116 culture; experiment: as above; type: cell-based, human; conditions: 1 μmol/L, 3 h incubation, washed with cooled phosphate buffer, ImageJ, >300 cells
Protocol: (§2) A fluorescent dye 6-FAM in the form of amine (Lumiprob, Russia) was used for bonding analysis. The peptides were labeled according a standard manufacturer protocol: they were dissolved in 0.1 mol/L solution of NaHCO3, 6-FAM dye was then added to the solution and incubated for 30 min at room temperature in the dark. The peptides were purified from the dye excess using alcohol precipitation method. For purification, one part of the labeled peptide solution was mixed with nine parts of the 95% ethanol cooled at –20°C. Further, the peptides were incubated for 90 min at the same temperature (–20°C). After incubation, the cooled solution was centrifuged for 15 min at 13,000 rpm in the Allegra centrifuge (Beckman Coulter, USA). After centrifugation, the supernatant, […], was removed and dried using a vacuum concentrator (Eppendorf, Germany).
(§3) The peptides were bound to the cell cultures such as HCT-116, LnCap, PC-3, CHO-K1. The HCT-116 (human colorectal carcinoma cell line) and CHO-K1 (an epithelial cell line derived from the Chinese hamster ovary) were obtained from the Russian collection of cell cultures of vertebrate. The LnCap (PSMA-positive adenocarcinoma of the human prostate gland) and PC-3 cultures (PSMA-negative adenocarcinoma of the human prostate obtained from the bone metastases) were kindly provided by the N.N. Blokhin National Medical Research Center of Oncology (Russia). […]
as §1
(§4) The quantitative analysis of images was performed with an ImageJ program. The fluorescence signal from more than 300 cells was analyzed for each peptide. The fluorescence intensity was calculated by the following formula: total cell fluorescence = integral density – (area of the selected cell × mean fluorescence of the background indicators) as described by Khokhlova et al.. Shortly it looks like as follows: to obtain a fluorescence signal of each selected cell in the ImageJ program, the integral density parameter is taken, after that, the fluorescence of the background, equal in area to the cell size, is subtracted from this parameter. The fluorescence signal without peptides was registered as a control. The data were presented in the relative units of fluorescence.

[5] = test system: LnCap culture; experiment: as above; type: cell-based, human; conditions: 1 μmol/L, 3 h incubation, washed with cooled phosphate buffer, ImageJ, >300 cells
Protocol: as §2, §3, §1, §4

[6] = test system: PC-3 culture; experiment: as above; type: cell-based, human; conditions: 1 μmol/L, 3 h incubation, washed with cooled phosphate buffer, ImageJ, >300 cells
Protocol: as §2, §3, §1, §4

chemical stability (chromatographic purity) after 24 h ([2]; 24 h in 0.9% sodium chloride, 37°C)	chemical stability (chromatographic purity) after 168 h ([2]; 168 h in 0.9% sodium chloride, 37°C)	chemical stability (chromatographic purity), initial ([2]; initial)	labeling result retained (radiochromatogram, Figure 4) after 168 h ([1]; after 168 h, radiochromatogram)	SMILES	radiochemical purity after 24 h ([1]; 24 h in 0.9% sodium chloride at 37°C, radio-HPLC, M±SD)	radiochemical purity after 48 h ([1]; 48 h in 0.9% sodium chloride at 37°C, radio-HPLC, M±SD)	radiochemical purity after 168 h ([1]; radio-HPLC, M±SD)	radiochemical purity, initial ([1]; initial (after labeling and C18 cartridge purification), radio-HPLC with GABI detector, acetonitrile/water (0.01% TFA) gradient, M±SD)	binding to CHO-K1 culture (fluorescence signal) [3]	binding to HCT-116 culture (fluorescence signal) [4]	binding to LnCap culture (fluorescence signal) [5]	binding to LnCap culture (fluorescence signal) ([5]; listed as PSMA- 617)	binding to PC-3 culture (fluorescence signal) [6]
				O=C([O-])CN1CCN(CC(=O)[O-])CCN(CC(=O)NCC2CCC(C(=O)N[C@@H](Cc3ccc4ccccc4c3)C(=O)NCCCC[C@H](NC(=O)N[C@@H](CCC(=O)O)C(=O)O)C(=O)O)CC2)CCN(CC(=O)[O-])CC1.[177Lu+3] (some centres unmarked) [Lu-PSMA-617]	39.6±4.1%	19.7±2.9%	9.2±0.7%	99.7±3.2%					
80.6±6.7%	42.9±3.4%	99.1±2.6%	almost completely detached	O=C(O)CC[C@H](NC(=O)N[C@@H](CCCCNC(=O)[C@H](Cc1ccc2ccccc2c1)NC(=O)[C@H]1CC[C@H](CNC(=O)CN2CCN(CC(=O)O)CCN(CC(=O)O)CCN(CC(=O)O)CC2)CC1)C(=O)O)C(=O)O [PSMA-617]			9.2±0.7%		not bound	not bound	high degree of attachment	is binding to the LnCap culture	not bound
